# Measurements as given in US6656509B1, “Combination of selenium-containing compounds with cytostatics” (Biosyn Arzneimittel GmbH, priority 1998, dated 2003).
# How the values were obtained:
# Test in all cases: clonogenic assay (colony forming assay)
# Assay type in all cases: cell-based, human
# LXFL 529 = settings: LXFL 529/18, X182AM
# Protocol: (§1) Solid human tumor xenografts growing subcutaneously in serial passages in thymus-aplastic nude mice (NMRI nu/nu strain, obtained from our own breeding facility) were removed under sterile conditions, the cells were mechanically disaggregated and subsequently incubated with an enzyme cocktail consisting of collagenase (1.2-1.8 U/ml, Worthington), DNAse (375 U/ml, Boehringer Mannheim) und hyaluronidase (29 U/ml, Boehringer Mannheim) in RPMI 1640 at 37° C. for 30 minutes. The cell mixture was passed through sieves of 200 μm and 50 μm mesh size and washed thereafter twice with PBS. The percentage of viable cells was determined in a Neubauer counting chamber using trypan blue exclusion.
# (§2) The clonogenic assay was performed according to a modified two-layer soft agar assay described by Hamburger and Salmon (Hamburger and Salmon, Science, 197: 461463, 1977). The bottom layer consisted of 0.2 ml Iscoves' Modified Dulbecco's Medium with 20% fetal calf serum and 0.75% agar. 8×10^3 to 1,6×10^4 cells were added to 0.2 ml of the same culture medium together with 0.4% agar and placed in already coated 24-multiwell dishes. Test substances were applied by continuous exposure (drug overlay) in 0.2 ml medium. Every dish included six control wells containing the vehicle- and drug-treated groups in triplicate at six concentrations.
# (§3) Cultures were incubated at 37° and 7% CO2 in a humidified atmosphere for 5 to 15 days (depending on the doubling time of the tumor stem cells) and monitored for colony growth using an inverted microscope. Within this period, in vitro tumor growth led to the formation of colonies with a diameter of ≧50 μm. At the time of maximum colony formation counts were performed with an automatic image analysis system (OMNICOM Fas IV, Biosys GmbH). 24 hours prior to this assay, vital colonies were stained with a sterile aqueous solution of 2-(4-iodophenyl)-3-(4-nitrophenyl)-5-phenyltetrazolium chloride (1 mg/ml, 100 μI/well). Drug effects were expressed in terms of the percentage of surviving cells, obtained by comparison of the mean number of colonies in the treated plates with the mean colony count of the untreated controls (test-versus-control-group value, T/C=colony countTreated Group*100/colony countControl Group).
# (§4) Coefficient of variation in the control group ≦50%. IC50 and IC70 values were determined by plotting compound concentration versus cell survival rate. Mean IC50 and IC70 values were calculated according to the formula: [formula]
# (§5) with x=specific tumor xenograft and n=total number of tumor xenografts studied. If an IC50 or IC70 value could not be determined within the examined dose range, the lowest or highest concentration studied was used for the calculation.
# PRXF PC3M = settings: PRXF PC3M/3; X189/AM
# Protocol: as §1, §2, §3, §4, §5
# RXF 393 = settings: RXF 393/9; X194AM
# Protocol: as §1, §2, §3, §4, §5
# MAXF MCF7X = settings: MAXF MCF7X/28; X218AM
# Protocol: as §1, §2, §3, §4, §5
# OVXF 899 = settings: OVXF 899/33; X185AM
# Protocol: as §1, §2, §3, §4, §5
# MAXF 401NL = settings: MAXF 401/16, X186AM
# Protocol: as §1, §2, §3, §4, §5
# LXFS 650 = settings: LXFS 650/9; X199AM
# Protocol: as §1, §2, §3, §4, §5
# OVXF 1353 = settings: OVXF 1353/17; X217AM
# Protocol: as §1, §2, §3, §4, §5
smiles,measurement,setting,value
O=[Se]([O-])[O-].[Na+].[Na+] [sodium selenite],Test/control (%) at drug concentration [μM] 1.,LXFL 529,61%
same,Test/control (%) at drug concentration [μM] 10.,LXFL 529,9%
same,Test/control (%) at drug concentration [μM] 100.,LXFL 529,0%
same,Test/control (%) at drug concentration [μM] .001,LXFL 529,90%
same,Test/control (%) at drug concentration [μM] .01,LXFL 529,78%
same,Test/control (%) at drug concentration [μM] .1,LXFL 529,72%
same,Test/control (%) class at drug concentration [μM] 1.,LXFL 529,− (− (T/C ≧ 50%))
same,Test/control (%) class at drug concentration [μM] 10.,LXFL 529,+++ (+++ (T/C ≦ 10%))
same,Test/control (%) class at drug concentration [μM] 100.,LXFL 529,+++ (+++ (T/C ≦ 10%))
same,Test/control (%) class at drug concentration [μM] .001,LXFL 529,− (− (T/C ≧ 50%))
same,Test/control (%) class at drug concentration [μM] .01,LXFL 529,− (− (T/C ≧ 50%))
same,Test/control (%) class at drug concentration [μM] .1,LXFL 529,− (− (T/C ≧ 50%))
same,Test/control (%) at drug concentration [μM] 10.,LXFL 529; listed as selenium,< 30%
same,Test/control (%) at drug concentration [μM] 1.,PRXF PC3M,85%
same,Test/control (%) at drug concentration [μM] 10.,PRXF PC3M,38%
same,Test/control (%) at drug concentration [μM] 100.,PRXF PC3M,1%
same,Test/control (%) at drug concentration [μM] .001,PRXF PC3M,91%
same,Test/control (%) at drug concentration [μM] .01,PRXF PC3M,91%
same,Test/control (%) at drug concentration [μM] .1,PRXF PC3M,89%
same,Test/control (%) class at drug concentration [μM] 1.,PRXF PC3M,− (− (T/C ≧ 50%))
same,Test/control (%) class at drug concentration [μM] 10.,PRXF PC3M,+ (+ (30% ≦ T/C < 50%))
same,Test/control (%) class at drug concentration [μM] 100.,PRXF PC3M,+++ (+++ (T/C ≦ 10%))
same,Test/control (%) class at drug concentration [μM] .001,PRXF PC3M,− (− (T/C ≧ 50%))
same,Test/control (%) class at drug concentration [μM] .01,PRXF PC3M,− (− (T/C ≧ 50%))
same,Test/control (%) class at drug concentration [μM] .1,PRXF PC3M,− (− (T/C ≧ 50%))
same,Test/control (%) at drug concentration [μM] 1.,RXF 393,31%
same,Test/control (%) at drug concentration [μM] 10.,RXF 393,32%
same,Test/control (%) at drug concentration [μM] 100.,RXF 393,10%
same,Test/control (%) at drug concentration [μM] .001,RXF 393,62%
same,Test/control (%) at drug concentration [μM] .01,RXF 393,45%
same,Test/control (%) at drug concentration [μM] .1,RXF 393,31%
same,Test/control (%) class at drug concentration [μM] 1.,RXF 393,+ (+ (30% ≦ T/C < 50%))
same,Test/control (%) class at drug concentration [μM] 10.,RXF 393,+ (+ (30% ≦ T/C < 50%))
same,Test/control (%) class at drug concentration [μM] 100.,RXF 393,+++ (+++ (T/C ≦ 10%))
same,Test/control (%) class at drug concentration [μM] .001,RXF 393,− (− (T/C ≧ 50%))
same,Test/control (%) class at drug concentration [μM] .01,RXF 393,− (− (T/C ≧ 50%))
same,Test/control (%) class at drug concentration [μM] .1,RXF 393,+ (+ (30% ≦ T/C < 50%))
same,Test/control (%) at drug concentration [μM] 1.,MAXF MCF7X,78%
same,Test/control (%) at drug concentration [μM] 10.,MAXF MCF7X,97%
same,Test/control (%) at drug concentration [μM] 100.,MAXF MCF7X,0%
same,Test/control (%) at drug concentration [μM] .001,MAXF MCF7X,93%
same,Test/control (%) at drug concentration [μM] .01,MAXF MCF7X,85%
same,Test/control (%) at drug concentration [μM] .1,MAXF MCF7X,90%
same,Test/control (%) class at drug concentration [μM] 1.,MAXF MCF7X,− (− (T/C ≧ 50%))
same,Test/control (%) class at drug concentration [μM] 10.,MAXF MCF7X,− (− (T/C ≧ 50%))
same,Test/control (%) class at drug concentration [μM] 100.,MAXF MCF7X,+++ (+++ (T/C ≦ 10%))
same,Test/control (%) class at drug concentration [μM] .001,MAXF MCF7X,− (− (T/C ≧ 50%))
same,Test/control (%) class at drug concentration [μM] .01,MAXF MCF7X,− (− (T/C ≧ 50%))
same,Test/control (%) class at drug concentration [μM] .1,MAXF MCF7X,− (− (T/C ≧ 50%))
same,Test/control (%) at drug concentration [μM] 1.,OVXF 899,70%
same,Test/control (%) at drug concentration [μM] 10.,OVXF 899,73%
same,Test/control (%) at drug concentration [μM] 100.,OVXF 899,1%
same,Test/control (%) at drug concentration [μM] .001,OVXF 899,80%
same,Test/control (%) at drug concentration [μM] .01,OVXF 899,79%
same,Test/control (%) at drug concentration [μM] .1,OVXF 899,66%
same,Test/control (%) class at drug concentration [μM] 1.,OVXF 899,− (− (T/C ≧ 50%))
same,Test/control (%) class at drug concentration [μM] 10.,OVXF 899,− (− (T/C ≧ 50%))
same,Test/control (%) class at drug concentration [μM] 100.,OVXF 899,+++ (+++ (T/C ≦ 10%))
same,Test/control (%) class at drug concentration [μM] .001,OVXF 899,− (− (T/C ≧ 50%))
same,Test/control (%) class at drug concentration [μM] .01,OVXF 899,− (− (T/C ≧ 50%))
same,Test/control (%) class at drug concentration [μM] .1,OVXF 899,− (− (T/C ≧ 50%))
same,Test/control (%) at drug concentration [μM] 1.,MAXF 401NL,74%
same,Test/control (%) at drug concentration [μM] 10.,MAXF 401NL,66%
same,Test/control (%) at drug concentration [μM] 100.,MAXF 401NL,8%
same,Test/control (%) at drug concentration [μM] .1,MAXF 401NL,53%
same,Test/control (%) class at drug concentration [μM] 1.,MAXF 401NL,− (− (T/C ≧ 50%))
same,Test/control (%) class at drug concentration [μM] 10.,MAXF 401NL,− (− (T/C ≧ 50%))
same,Test/control (%) class at drug concentration [μM] 100.,MAXF 401NL,+++ (+++ (T/C ≦ 10%))
same,Test/control (%) class at drug concentration [μM] .1,MAXF 401NL,− (− (T/C ≧ 50%))
same,Test/control (%) at drug concentration [μM] .001,MAXF 401NL; s result of a dish,67%
same,Test/control (%) at drug concentration [μM] .01,MAXF 401NL; s result of a dish,81%
same,Test/control (%) class at drug concentration [μM] .001,MAXF 401NL; s result of a dish,− (− (T/C ≧ 50%))
same,Test/control (%) class at drug concentration [μM] .01,MAXF 401NL; s result of a dish,− (− (T/C ≧ 50%))
same,Test/control (%) at drug concentration [μM] 1.,LXFS 650,84%
same,Test/control (%) at drug concentration [μM] 10.,LXFS 650,109%
same,Test/control (%) at drug concentration [μM] 100.,LXFS 650,16%
same,Test/control (%) at drug concentration [μM] .001,LXFS 650,100%
same,Test/control (%) at drug concentration [μM] .01,LXFS 650,100%
same,Test/control (%) at drug concentration [μM] .1,LXFS 650,98%
same,Test/control (%) class at drug concentration [μM] 1.,LXFS 650,− (− (T/C ≧ 50%))
same,Test/control (%) class at drug concentration [μM] 10.,LXFS 650,− (− (T/C ≧ 50%))
same,Test/control (%) class at drug concentration [μM] 100.,LXFS 650,++ (++ (10% < T/C < 30%))
same,Test/control (%) class at drug concentration [μM] .001,LXFS 650,− (− (T/C ≧ 50%))
same,Test/control (%) class at drug concentration [μM] .01,LXFS 650,− (− (T/C ≧ 50%))
same,Test/control (%) class at drug concentration [μM] .1,LXFS 650,− (− (T/C ≧ 50%))
same,Test/control (%) at drug concentration [μM] 1.,OVXF 1353,90%
same,Test/control (%) at drug concentration [μM] 10.,OVXF 1353,100%
same,Test/control (%) at drug concentration [μM] 100.,OVXF 1353,0%
same,Test/control (%) at drug concentration [μM] .001,OVXF 1353,96%
same,Test/control (%) at drug concentration [μM] .01,OVXF 1353,91%
same,Test/control (%) at drug concentration [μM] .1,OVXF 1353,100%
same,Test/control (%) class at drug concentration [μM] 1.,OVXF 1353,− (− (T/C ≧ 50%))
same,Test/control (%) class at drug concentration [μM] 10.,OVXF 1353,− (− (T/C ≧ 50%))
same,Test/control (%) class at drug concentration [μM] 100.,OVXF 1353,+++ (+++ (T/C ≦ 10%))
same,Test/control (%) class at drug concentration [μM] .001,OVXF 1353,− (− (T/C ≧ 50%))
same,Test/control (%) class at drug concentration [μM] .01,OVXF 1353,− (− (T/C ≧ 50%))
same,Test/control (%) class at drug concentration [μM] .1,OVXF 1353,− (− (T/C ≧ 50%))
